The nature of data set [1]: Intrinsic dissolution rate, low-volume rotating disc method. The data set is classed as physicochemical. The following applies: salt made at 1 g scale from ethanol; disc 0.07 cm^2, 500 rpm, 50 mL USP Phosphate buffer pH 6.8 at 37° C. How it is done: The salt manufactured at 1 g scale from ethanol was further investigated for its intrinsic dissolution rate and compared to the free base of 4-(5-{(1R)-1-[5-(3-chlorophenyl)isoxazol-3-yl]ethoxy}-4-methyl-4H-1,2,4-triazol-3-yl)pyridine. […] Dissolution rates of the base and salt were measured with a low-volume rotating disc method. Discs were compressed from pure compound and centrically mounted in a disc holder with an exposed area of 0.07 cm^2. The disc holder rotated at 500 rpm immersed in 50 mL USP Phosphate buffer pH 6.8 at 37° C. The compound was analysed UV-Online by a Spectrophotometer with a flow cell and a peristaltic pump with continuous circulation.

The nature of data set [2]: Moisture sorption / deliquescence of the salts at relative humidity. Type of data set: physicochemical.

For the compound `C[C@@H](Oc1nnc(-c2ccncc2)n1C)c1cc(-c2cccc(Cl)c2)on1.Cl` [Example 17, 4-(5-{(1R)-1-[5-(3-chlorophenyl)isoxazol-3-yl]ethoxy}-4-methyl-4H-1,2,4-triazol-3-yl)pyridine hydrochloride], in data set [1], the “intrinsic dissolution rate of the salt as compared to the free base” value stood at 1000 times. Also, the “relative humidity at which moisture sorption is increased” value in data set [2] (first batch from ethanol) was 90-95 % RH.

`C[C@@H](Oc1nnc(-c2ccncc2)n1C)c1cc(-c2cccc(Cl)c2)on1.O=S(=O)(O)O` [Example 18, 4-(5-{(1R)-1-[5-(3-chlorophenyl)isoxazol-3-yl]ethoxy}-4-methyl-4H-1,2,4-triazol-3-yl)pyridine sulphate]: the “relative humidity at which the salt deliquesces” value in data set [2] (salt manufactured again from ethanol at 68° C) is reported as 70-80 % RH; in data set [2] (salt recrystallised from the oiled salt in ethanol), 60-70 % relative humidity.

Source of the values: US20080227824A1, “5-(Phenylisoxazolylethoxy) - Triazol- 3 -Yl Substituted Pyridine Compounds for the Treatment of Neurological, Psychiatric or Pain Disorders” (Astrazeneca AB, priority 2005, published 2008).
